Molecular target: T1, mouse 17β-HSD 1 (Mus musculus, UniProt P51656)
T1 construct: Full length cDNAs of several 17β-HSDs type 1 originating from different species were cloned; made in house; host or cells: E.coli BL21 DE3 Codon Plus RP
T1 sequence (P51656 1-344): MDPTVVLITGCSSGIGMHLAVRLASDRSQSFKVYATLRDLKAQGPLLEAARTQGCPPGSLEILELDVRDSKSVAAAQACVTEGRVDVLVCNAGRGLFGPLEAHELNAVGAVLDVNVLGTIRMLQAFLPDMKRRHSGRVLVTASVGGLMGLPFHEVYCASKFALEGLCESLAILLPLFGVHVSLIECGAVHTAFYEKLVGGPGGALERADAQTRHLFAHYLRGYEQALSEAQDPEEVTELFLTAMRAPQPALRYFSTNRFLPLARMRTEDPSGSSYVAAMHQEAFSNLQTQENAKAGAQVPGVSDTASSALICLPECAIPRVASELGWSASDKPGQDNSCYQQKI
Experiment: In vitro enzymatic activity, recombinant mouse 17β-HSD 1
Type: biochemical
Conditions: 2 µM compound, 15 nM 3H-estrone, read-out: Observed % inhibition
Excerpt: Full length cDNAs of several 17β-HSDs type 1 originating from different species were cloned either into the pQE30 vector (human 17β-HSD 1, coding for acc. no. NP_000404) for expression as His-Tag protein or into a modified pGex-2T vector [63] (mouse 17β-HSD 1, acc. no. NP_034605; rat 17β-HSD 1, acc. no. NP_036983; marmoset 17β-HSD 1, acc. no. AAG01115; porcine 17β-HSD 1, acc. no. NP_001121944) for expression as GST-fusion proteins. The marmoset 17β-HSD 1 enzyme sequence was updated by the missing N-terminal part (AF272013) and the new porcine sequence was submitted to GenBank (NP_001121944). Human 17β-HSDs 2, 4, 5 (AKR1C3, the latter kindly provided by Dr. T. Penning) and 7 were all cloned into the modified pGEX-2T vector. For 17β-HSD 4 only the SDR-domain converting the steroids was subcloned. Plasmids were transformed into E.coli BL21 DE3 Codon Plus RP (Stratagene) and enzyme expression was induced by 0.5 mM IPTG. After 4h incubation at 37°C with continuous shaking bacteria were pelleted by centrifugation at 10.000×g. Pellets were stored until use at −20°C.
The bacteria containing recombinant enzymes were resuspended in PBS and enzymatic assays were performed in 100 mM sodium phosphate buffer at pH 6.6 for the reductive reaction and at pH 7.7 for the oxidative reaction. […] All substrates were purchased from NEN/Perkin Elmer. The cofactors NADPH (Sigma; for reductive reactions) and NAD^+ (Serva, for oxidative reactions) were used at final concentrations of 0.5 mg/ml. […] The incubation at 37°C was stopped with 0.21 M ascorbic acid in methanol∶acetic acid 99∶1 (v∶v) after the time needed to convert approximately 30% of the substrate in a control assay with 1% DMSO, without inhibitor candidates. […] The solvent used was acetonitrile∶water (43∶57, v∶v) at a flow rate of 1 ml/min. Radioactivity was detected by online-scintillation counting (Berthold LB506D) after mixing with ReadyFlowIII (Beckman). Conversion was calculated from integration of substrate and product peaks. […] All assays were run in duplicates of two independent experiments and mean values are reported. The IC50 values were determined by the One Ligand Binding model of SigmaPlot kinetics module.

| SMILES | inhibition at 2 µM |
| --- | --- |
| C[C@]12CC[C@@H]3c4ccc(O)cc4CC[C@H]3[C@@H]1C[C@H](CC(=O)NCc1cccnc1)C2=O [Compound 5, reference compound] | 3.2% |
| Cc1cnc(NC(=O)CC[C@@H]2CC(=O)[C@@]3(C)CC[C@@H]4c5ccc(O)cc5CC[C@H]4[C@H]23)s1 [Compound 3] | 27% |
| C[C@]12CC[C@@H]3c4ccc(O)cc4CC[C@H]3[C@@H]1[C@@H](CNC(=O)c1ccc(F)cc1)CC2=O [Compound 1] | 27% |
| COc1ccc(-c2cn(CCC[C@H]3CC(=O)[C@@]4(C)CC[C@@H]5c6ccc(O)cc6CC[C@H]5[C@H]34)nn2)cc1 [Compound 4] | 18.5% |
| C[C@]12CC[C@@H]3c4ccc(O)cc4CC[C@H]3[C@@H]1[C@@H](CCCC(=O)N1CCOCC1)CC2=O [Compound 2] | -1.5% |

— article PMC2882332, “Species Used for Drug Testing Reveal Different Inhibition Susceptibility for 17beta-Hydroxysteroid Dehydrogenase Type 1” (PLoS ONE, 2010)
